Measured values taken from US8173808B2, “Substituted naphthalenyl-pyrimidine compounds” (ArQule, Inc., priority 2009, dated 2012).
Where a name gives a salt, the structure may show the parent alone.

Tested on: not given
Test: not given
Details: not given

SMILES | melting point [°C]
COc1ccc2cc(-c3ccnc(NCCc4ccc(OC)c(OC)c4)n3)cc(N3CCNCC3)c2c1 (as salt: HCl) [Compound 110, N-(3,4-dimethoxyphenethyl)-4-(6-methoxy-4-(piperazin-1-yl)naphthalen-2-yl)pyrimidin-2-amine] | 138 to 140
CNc1nccc(-c2cc(NCCCNCCCOC)c3cc(OC)ccc3c2)n1 (as salt: HCl) [Compound 190, N-{7-methoxy-3-[2-(methylamino)pyrimidin-4-yl]-1-naphthyl}-N′-(3-methoxypropyl)propane-1,3-diamine] | 130 to 132
CCN(CC)CCCN1CCN(c2cc(-c3ccnc(NCc4cccc(OC)c4)n3)cc3ccc(OC)cc23)CC1 (as salt: hydrochloride) [Compound 197, 4-(4-(4-(3-(diethylamino)propyl)piperazin-1-yl)-6-methoxynaphthalen-2-yl)-N-(3-methoxybenzyl)pyrimidin-2-amine] | 156 to 160
COc1cccc(CNc2nccc(-c3cc(N4CCN(CCCN5CCCC5)CC4)c4cc(OC)ccc4c3)n2)c1 (as salt: hydrochloride) [Compound 198, 4-(6-methoxy-4-(4-(3-(pyrrolidin-1-yl)propyl)piperazin-1-yl)naphthalen-2-yl)-N-(3-methoxybenzyl)pyrimidin-2-amine] | 160 to 167
CCCN(C)CCCN1CCN(c2cc(-c3ccnc(NCc4cccc(OC)c4)n3)cc3ccc(OC)cc23)CC1 (as salt: hydrochloride) [Compound 199, 4-(6-methoxy-4-(4-(3-(methyl(propyl)amino)propyl)piperazin-1-yl)naphthalen-2-yl)-N-(3-methoxybenzyl)pyrimidin-2-amine] | 156 to 160
COc1cccc(CNc2nccc(-c3cc(N4CCN(CCCN5CCC5)CC4)c4cc(OC)ccc4c3)n2)c1 (as salt: hydrochloride) [Compound 200, 4-(4-(4-(3-(azetidin-1-yl)propyl)piperazin-1-yl)-6-methoxynaphthalen-2-yl)-N-(3-methoxybenzyl)pyrimidin-2-amine] | 122 to 130
CCN(C)CCCN1CCN(c2cc(-c3ccnc(NCc4cccc(OC)c4)n3)cc3ccc(OC)cc23)CC1 (as salt: hydrochloride) [Compound 201, 4-(4-(4-(3-(ethyl(methyl)amino)propyl)piperazin-1-yl)-6-methoxynaphthalen-2-yl)-N-(3-methoxybenzyl)pyrimidin-2-amine] | 160 to 169
COc1cccc(CNc2nccc(-c3cc(N4CCN(CCCN(C)C5CCCCC5)CC4)c4cc(OC)ccc4c3)n2)c1 (as salt: hydrochloride) [Compound 202, 4-(4-(4-(3-(cyclohexyl(methyl)amino)propyl)piperazin-1-yl)-6-methoxynaphthalen-2-yl)-N-(3-methoxybenzyl)pyrimidin-2-amine] | 155 to 161
COCCCNc1nccc(-c2cc(N3CCNCC3)c3cc(OC)ccc3c2)n1 [Compound 113, 4-(6-methoxy-4-piperazin-1-yl-2-naphthyl)-N-(3-methoxypropyl)pyrimidin-2-amine] | 136 to 138
COc1ccc2cc(-c3ccnc(NCCCN(C)C)n3)cc(N3CCNCC3)c2c1 [Compound 114, N′-[4-(6-methoxy-4-piperazin-1-yl-2-naphthyl)pyrimidin-2-yl]-N,N-dimethylpropane-1,3-diamine] | 188 to 190
COc1cccc(CCNc2nccc(-c3cc(N4CCNCC4)c4cc(OC)ccc4c3)n2)c1 [Compound 115, N-[2-(3-methoxyphenyl)ethyl]-4-(6-methoxy-4-piperazin-1-yl-2-naphthyl)pyrimidin-2-amine] | 142 to 144
CNc1nccc(-c2cc(NC(=O)CN(C)C)c3cc(OC)ccc3c2)n1 [Compound 137, 2-(dimethylamino)-N-(7-methoxy-3-(2-(methylamino)pyrimidin-4-yl)naphthalen-1-yl)acetamide] | 70 to 73
CNc1nccc(-c2cc(NC(=O)CNCCO)c3cc(OC)ccc3c2)n1 [Compound 138, 2-((2-hydroxyethyl)amino)-N-(7-methoxy-3-(2-(methylamino)pyrimidin-4-yl)naphthalen-1-yl)acetamide] | 169 to 172
COc1ccc2cc(-c3ccnc(N(C)C)n3)cc(NC3CCN(c4ncnc5[nH]nc(Br)c45)CC3)c2c1 [Compound 144, 4-(4-((1-(3-bromo-1H-pyrazolo[3,4-d]pyrimidin-4-yl)piperidin-4-yl)amino)-6-methoxynaphthalen-2-yl)-N,N-dimethylpyrimidin-2-amine] | 167 to 172
COCCCNc1nccc(-c2cc(N3CCN(c4ncnc5[nH]nc(Br)c45)CC3)c3cc(OC)ccc3c2)n1 [Compound 177, 4-{4-[4-(3-bromo-1H-pyrazolo[3,4-d]pyrimidin-4-yl)piperazin-1-yl]-6-methoxy-2-naphthyl}-N-(3-methoxypropyl)pyrimidin-2-amine] | 225 to 227
COc1ccc2cc(-c3ccnc(NCCCN(C)C)n3)cc(N3CCN(c4ncnc5[nH]nc(Br)c45)CC3)c2c1 [Compound 178, N1-(4-(4-(4-(3-bromo-1H-pyrazolo[3,4-d]pyrimidin-4-yl)piperazin-1-yl)-6-methoxynaphthalen-2-yl)pyrimidin-2-yl)-N3,N3-dimethylpropane-1,3-diamine] | 152 to 155
COc1ccc2cc(-c3ccnc(NCCc4ccc(OC)c(OC)c4)n3)cc(N3CCN(c4ncnc5[nH]nc(Br)c45)CC3)c2c1 [Compound 179, 4-{4-[4-(3-bromo-1H-pyrazolo[3,4-d]pyrimidin-4-yl)piperazin-1-yl]-6-methoxy-2-naphthyl}-N-[2-(3,4-dimethoxyphenyl)ethyl]pyrimidin-2-amine] | 130 to 133
COc1cccc(CCNc2nccc(-c3cc(N4CCN(c5ncnc6[nH]nc(Br)c56)CC4)c4cc(OC)ccc4c3)n2)c1 [Compound 180, 4-{4-[4-(3-bromo-1H-pyrazolo[3,4-d]pyrimidin-4-yl)piperazin-1-yl]-6-methoxy-2-naphthyl}-N-[2-(3-methoxyphenyl)ethyl]pyrimidin-2-amine] | 200 to 203
CNc1nccc(-c2cc(NCCCNc3ncnc4[nH]nc(Br)c34)c3cc(OC)ccc3c2)n1 [Compound 183, N1-(3-bromo-1H-pyrazolo[3,4-d]pyrimidin-4-yl)-N3-(7-methoxy-3-(2-(methylamino)pyrimidin-4-yl)naphthalen-1-yl)propane-1,3-diamine] | 145 to 148
CNc1nccc(-c2cc(NC(=O)c3ccc(C(C)(C)C)cc3)c3cc(OC)ccc3c2)n1 [Compound 184, 4-tert-butyl-N-{7-methoxy-3-[2-(methylamino)pyrimidin-4-yl]-1-naphthyl}benzamide] | 231 to 232

Tested on: DLD-1
Test: MTS assay, DLD-1
Type: cell-based
Details: Homo sapiens, 72 hours, 1 Percent FBS

SMILES | inhibition at 10 µM [%]
CNc1nccc(-c2cc(NC3CCN(c4ncnc5c(C)csc45)CC3)c3cc(OC)ccc3c2)n1 [Compound 164, 4-(6-methoxy-4-{[l-(7-methylthieno[3,2-d]pyrimidin-4-yl)piperidin-4-yl]amino}-2-naphthyl)-N-methylpyrimidin-2-amine] | 98
CNc1nccc(-c2cc(NC3CCN(c4ncccc4C(=O)OC)CC3)c3cc(OC)ccc3c2)n1 [Compound 168, methyl 2-[4-({7-methoxy-3-[2-(methylamino)pyrimidin-4-yl]-1-naphthyl}amino)piperidin-1-yl]nicotinate] | 98

Tested on: MDA-MB-231
Test: MTS assay, MDA-MB-231
Type: cell-based
Details: Homo sapiens, 72 hours, 1 Percent FBS

SMILES | inhibition at 10 µM [%]
CNc1nccc(-c2cc(NC3CCN(c4ncnc5c(C)csc45)CC3)c3cc(OC)ccc3c2)n1 [Compound 164, 4-(6-methoxy-4-{[l-(7-methylthieno[3,2-d]pyrimidin-4-yl)piperidin-4-yl]amino}-2-naphthyl)-N-methylpyrimidin-2-amine] | 90
CNc1nccc(-c2cc(NC3CCN(c4ncccc4C(=O)OC)CC3)c3cc(OC)ccc3c2)n1 [Compound 168, methyl 2-[4-({7-methoxy-3-[2-(methylamino)pyrimidin-4-yl]-1-naphthyl}amino)piperidin-1-yl]nicotinate] | 99
